According to ChEMBL document CHEMBL4813910, “Curse or Cure? A Perspective on the Developability of Aldehydes as Active Pharmaceutical Ingredients” (J Med Chem, 2020):

Experiments:
[1] = Drug excretion in human urine measured for 24 hrs; type: ADME, tissue-based; settings: read-out: Drug excretion
[2] = Dermal bioavailability in human at 0.46 mg/kg; type: ADME, organism-based; settings: in vivo, topical or ocular
[3] = Drug excretion in human urine at 0.46 mg/kg dosed-dermally measured for 24 hrs; type: ADME, organism-based; settings: topical or ocular, read-out: Drug excretion
[4] = Half life in human at 0.03 mg/kg, po; type: ADME, organism-based; settings: in vivo
[5] = Tmax in human at 0.03 mg/kg, po; type: ADME, organism-based; settings: in vivo
[6] = Oral bioavailability in human at 0.03 mg/kg; type: ADME, organism-based; settings: in vivo
[7] = Drug excretion in human urine at 4 mg, po measured within 24 hrs; type: ADME, organism-based; settings: in vivo
[8] = Drug metabolism in human assessed as pyridoxal-5-phosphate Tmax at 4 mg, po; type: ADME; settings: in vivo
[9] = Drug excretion in human urine assessed as maximum urinary excretion of pyridoxic-acid at 4 mg, po; type: ADME; settings: in vivo, 24 h
[10] = Tmax in human at 4 mg, po; type: ADME; settings: in vivo
[11] = Cmax in human at 4 mg, po; type: ADME; design: route oral, dose 4 mg; settings: in vivo
[12] = Drug metabolism in human assessed as pyridoxal-5-phosphate Cmax at 4 mg, po; type: ADME; design: route oral, dose 4 mg; settings: in vivo
[13] = Drug excretion in human urine assessed as time of maximum urinary excretion of pyridoxic-acid at 4 mg, po; type: ADME, tissue-based; settings: in vivo
[14] = Drug metabolism in human assessed as pyridoxal-5-phosphate Tmax at 3.36 mg, po; type: ADME; settings: in vivo
[15] = Drug excretion in human urine assessed as maximum urinary excretion of pyridoxic-acid at 3.36 mg, po; type: ADME, tissue-based; settings: in vivo
[16] = Drug excretion in human urine at 3.36 mg, po measured within 24 hrs; type: ADME, organism-based; settings: in vivo
[17] = Tmax in human at 3.36 mg, po; type: ADME; settings: in vivo
[18] = Drug metabolism in human assessed as pyridoxal-5-phosphate Cmax at 3.36 mg, po; type: ADME; design: route oral, dose 3.36 mg; settings: in vivo
[19] = Cmax in human at 3.36 mg, po measured for 7 days; type: ADME, organism-based; design: route oral, time 7 day, dose 3.36 mg; settings: in vivo
[20] = Drug excretion in human assessed as time of maximum urinary excretion of pyridoxic-acid at 3.36 mg, po; type: ADME; settings: in vivo
[21] = Clearance in mouse at 1 mg/kg, iv; type: ADME, organism-based; settings: in vivo
[22] = Cmax in mouse at 3 mg/kg, po; type: ADME, organism-based; design: route oral, dose 3 mg/kg; settings: in vivo
[23] = Volume of distribution at steady state in mouse at 1 mg/kg, iv; type: ADME, organism-based; settings: in vivo, read-out: Vdss
[24] = Oral bioavailability in mouse at 3 mg/kg; type: ADME, organism-based; settings: in vivo
[25] = AUC (0 to 24 hrs) in mouse at 1 mg/kg, iv; type: ADME, organism-based; design: time < 24 hr, route intravenous, dose 1 mg/kg; settings: in vivo
[26] = AUC (0 to 24 hrs) in mouse at 3 mg/kg, po; type: ADME, organism-based; design: time < 24 hr, route oral, dose 3 mg/kg; settings: in vivo
[27] = Tmax in mouse at 3 mg/kg, po; type: ADME, organism-based; settings: in vivo
[28] = Half life in mouse at 1 mg/kg, iv; type: ADME, organism-based; settings: in vivo
[29] = Half life in human liver supernatant; type: ADME, subcellular, Supernatent
[30] = Drug metabolism in human assessed as half life of acid metabolite at 0.25%, OU administered once daily for 7 days; type: ADME; settings: topical_or_ocular, 168 h, time 7 day
[31] = Drug metabolism in human assessed as AUC (0 to infinity) of acid metabolite at 0.25%, OU administered once daily for 7 days; type: ADME; design: time 7 day, dose 0.25 %; settings: topical_or_ocular, 168 h
[32] = Cmax in human at 0.25%, OU administered once daily for 7 days; type: ADME; design: dose 0.25 %, time 7 day; settings: topical or ocular
[33] = Drug metabolism in human assessed as Tmax of acid metabolite at 0.25%, OU administered once daily for 7 days; type: ADME; settings: topical_or_ocular, 168 h, time 7 day
[34] = Protein binding in human plasma incubated for 240 mins by equilibrium dialysis; type: ADME, cell-free; settings: read-out: PPB (converted)
[35] = Half life in human at 0.25%, OU administered once daily for 7 days; type: ADME; settings: topical or ocular, time 7 day
[36] = Tmax in human at 0.25%, OU administered once daily for 7 days; type: ADME; settings: topical or ocular, time 7 day
[37] = Drug metabolism in human assessed as Cmax of acid metabolite at 0.25%, OU administered once daily for 7 days; type: ADME; design: dose 0.25 %, time 7 day; settings: topical_or_ocular, 168 h
[38] = AUC (0 to infinity) in human at 20 mg, po measured up to 240 hrs by HPLC method; type: ADME, organism-based; design: route oral, dose 20 mg, time <=240; settings: in vivo
[39] = Tmax in human at 20 mg/kg, po measured up to 30 hrs by HPLC method; type: ADME, organism-based; settings: in vivo
[40] = Tmax in human at 20 mg, po measured up to 240 hrs by HPLC method; type: ADME, organism-based; settings: in vivo
[41] = Half life in mouse plasma at 5 ug/ml incubated for 1 to 24 hrs by LC/MS/MS method; type: ADME, cell-free; settings: time 1-24 hrs, dose 5 µg/ml
[42] = Cmax in human at 20 mg/kg, po measured up to 30 hrs by HPLC method; type: ADME, organism-based; design: route oral, dose 20 mg/kg, time <=30; settings: in vivo
[43] = AUC (0 to 10 hrs) in human at 40 mg, po BID cotreated with paclitaxel by HPLC method; type: ADME, organism-based; design: time < 10 hr, route oral, dose 40 mg; settings: in vivo
[44] = AUC (0 to infinity) in human at 20 mg/kg, po measured up to 30 hrs by HPLC method; type: ADME, organism-based; design: route oral, dose 20 mg/kg, time <=30; settings: in vivo
[45] = Half life in human at 40 mg, po BID cotreated with paclitaxel by HPLC method; type: ADME, organism-based; settings: in vivo
[46] = Protein binding in human plasma; type: ADME, cell-free
[47] = Half life in human plasma at 5 ug/ml incubated for 1 to 24 hrs by LC/MS/MS method; type: ADME, cell-free; settings: time 1-24 hrs, dose 5 µg/ml
[48] = Clearance in human at 40 mg, po BID cotreated with paclitaxel by HPLC method; type: ADME, organism-based; settings: in vivo
[49] = Half life in human at 20 mg/kg, po measured up to 240 hrs by HPLC method; type: ADME, organism-based; settings: in vivo
[50] = Cmax in human at 20 mg, po measured up to 240 hrs by HPLC method; type: ADME, organism-based; design: route oral, dose 20 mg, time <=240; settings: in vivo
[51] = Half life in dog plasma at 5 ug/ml incubated for 1 to 24 hrs by LC/MS/MS method; type: ADME, cell-free, Canis lupus familiaris; settings: time 1-24 hrs, dose 5 µg/ml
[52] = Half life in human at 20 mg/kg, po measured up to 30 hrs by HPLC method; type: ADME, organism-based; settings: in vivo
[53] = Clearance in dog at 0.5 mg/kg, iv by HPLC method; type: ADME, organism-based, Canis lupus familiaris; settings: in vivo
[54] = Cmax in human at 40 mg, po BID cotreated with paclitaxel by HPLC method; type: ADME, organism-based; design: route oral, dose 40 mg; settings: in vivo
[55] = Bioavailability in human at 10.3 mg; type: ADME, organism-based; settings: in vivo
[56] = Drug excretion in human urine at 0.7 mg/kg, po measured after 8 to 24 hrs; type: ADME, organism-based; settings: time 8-24 hrs, read-out: Drug excretion
[57] = Oral bioavailability in human at 0.7 mg/kg; type: ADME, organism-based; settings: in vivo
[58] = Half life in human at 0.7 mg/kg, po; type: ADME, organism-based; settings: in vivo

## CC(CC=O)CCCC(C)(C)O (stereo not given)
[1]
  dose excreted at 24 h: 94%
[2]
  bioavailability: 5%
[3]
  dose excreted at 24 h: 90%
[4]
  half-life: 3.28 h
[5]
  Tmax: 2.7 h
[6]
  bioavailability: 100%

## Cc1ncc(CO)c(CO)c1O [PYRIDOXINE]
[7]
  Drug excretion: 1.5 µmol
[8]
  Tmax: 3 h
[9]
  Drug excretion: 0.7 µmol/h
[10]
  Tmax: 1 h
[11]
  Cmax: 60 nM
[12]
  Cmax: 30 nM
[13]
  Time: 3 h

## Cc1ncc(CO)c(C=O)c1O [PYRIDOXAL]
[14]
  Tmax: 1 h
[15]
  Drug excretion: 1.6 µmol/h
[16]
  Drug excretion: 1.2 µmol
[17]
  Tmax: 0.5 h
[18]
  Cmax: 18 nM
[19]
  Cmax: 280 nM
[20]
  Time: 1 h

## COCCNc1cc(NC(=O)N2CCCc3cc(CN4CCN(C)CC4=O)c(C=O)nc32)ncc1C#N [FGF401]
[21]
  clearance: 28 mL/min/kg
[22]
  Cmax: 200 nM
[23]
  Vd: 2.3 L/kg
[24]
  F: 21%
[25]
  AUC: 1.16 µM·h
[26]
  AUC: 0.25 µM·h
[27]
  Tmax: 2 h
[28]
  half-life: 1.4 h

## CN1CCC(=C2c3ccccc3CCn3c(C=O)cnc32)CC1 [ALCAFTADINE]
[29]
  half-life: < 0.25 h
[30]
  t1/2: 2 h
[31]
  AUC: 0.0087 µM·h
[32]
  Cmax: 0.15 nM
[33]
  Tmax: 1.05 h
[34]
  fraction unbound at 4 h: 0.61
[35]
  half-life: 0.4 h
[36]
  Tmax: 0.25 h
[37]
  Cmax: 6 nM

## Cc1cc2c(C(C)C)c(O)c(O)c(C=O)c2c(O)c1-c1c(C)cc2c(C(C)C)c(O)c(O)c(C=O)c2c1O [GOSSYPOL]
[38]
  AUC(0-inf): 29.2 µM·h
[39]
  Tmax: 4.6 h
[40]
  Tmax: 4.6 h
[41]
  half-life at 5 ug/ml: < 1 h
[42]
  Cmax: 799 nM
[43]
  AUC at 10 h: 6.81 µM·h
[44]
  AUC(0-inf): 6.08 µM·h
[45]
  half-life: 3.33 h
[46]
  PPB: 63%
[46]; read-out: PPB (converted)
  fraction unbound: 0.61
[47]
  half-life at 5 ug/ml: < 1 h
[48]
  CL/F: 2.5 mL/min/kg
[49]
  half-life: 133 h
[50]
  Cmax: 1750 nM
[51]
  half-life at 5 ug/ml: < 1 h
[52]
  half-life: 4.55 h
[53]
  clearance: 0.833 mL/min/kg
[53]; 0.5 mg/kg
  CL: 0.83 mL/min/kg
[54]
  Cmax: 1270 nM

## O=C/C=C/c1ccccc1
[55]
  bioavailability: 9%
[56]
  dose excreted: 100%
[57]
  bioavailability: 100%
[58]
  half-life: < 4 h
